# Experimental data reported in PMC11678425, “(-)-Syringaresinol Exerts an Antidepressant-like Activity in Mice by Noncompetitive Inhibition of the Serotonin Transporter” (Pharmaceuticals, 2024).
# What was measured:
# [1] = tested on: CUMS mice; assay: Novelty suppressed feeding test (NSFT) in CUMS mice; type: in vivo, mouse
# Method: (§1) C57BL/6 adult (6–8 weeks, body weight, 18–22 g) male mice were maintained and handled in a standard condition at the Experimental Animal Center of Southern Medical University (Guangzhou, China). Animal use was approved by the Animal Use and Care Committee of Southern Medical University (approved code: SMUL2021177, approved date: 12 December 2021). The CUMS procedure was carried out according to a protocol described previously. Except for those in the control group, mice were randomly exposed to two mild unpredictable stressors per day for 3 weeks. The stressors included water deprivation, restraint, tilted cage, wet/no bedding, rotation, peppermint, noise, and inverted light off/on. Mice in the control group were group housed without any stressors throughout the procedure. […] NSFT was performed after 16 h food deprivation, as described previously. The mouse was placed in an open field (24 × 40 × 14 cm), where a new chow was put in the center, and the latency time to bite food was counted over 10 min. Home cage feeding within a 20 min period was measured after the test. FST was carried out according to a protocol described previously. The mouse was placed into a beaker (Bomex, Beijing, China) with a height of 18 cm filled with water (22 ± 1 °C) for 6 min. The immobile time was measured during minutes 2–6. TST was performed according to a previous description. The mouse was suspended from a hook that hung from a suspension bar by placing a piece of adhesive tape on its tail about 1 cm away from the tip. The immobile time during minutes 2–6 was measured.
# [2] = molecular target: T1, hSERT E494Q (Homo sapiens, UniProt P31645, E494Q); assay: ASP^+ binding, hSERT E494Q; details: S2 site mutant, read-out: SYR IC50 for Binding
# T1 construct: forward and reverse primers were used to amplify a full-length hSERT; expressed in transfected cells; host or cells: HeLa cells, transient, pcDNA3.1
# T1 sequence (P31645 whole entry E494Q): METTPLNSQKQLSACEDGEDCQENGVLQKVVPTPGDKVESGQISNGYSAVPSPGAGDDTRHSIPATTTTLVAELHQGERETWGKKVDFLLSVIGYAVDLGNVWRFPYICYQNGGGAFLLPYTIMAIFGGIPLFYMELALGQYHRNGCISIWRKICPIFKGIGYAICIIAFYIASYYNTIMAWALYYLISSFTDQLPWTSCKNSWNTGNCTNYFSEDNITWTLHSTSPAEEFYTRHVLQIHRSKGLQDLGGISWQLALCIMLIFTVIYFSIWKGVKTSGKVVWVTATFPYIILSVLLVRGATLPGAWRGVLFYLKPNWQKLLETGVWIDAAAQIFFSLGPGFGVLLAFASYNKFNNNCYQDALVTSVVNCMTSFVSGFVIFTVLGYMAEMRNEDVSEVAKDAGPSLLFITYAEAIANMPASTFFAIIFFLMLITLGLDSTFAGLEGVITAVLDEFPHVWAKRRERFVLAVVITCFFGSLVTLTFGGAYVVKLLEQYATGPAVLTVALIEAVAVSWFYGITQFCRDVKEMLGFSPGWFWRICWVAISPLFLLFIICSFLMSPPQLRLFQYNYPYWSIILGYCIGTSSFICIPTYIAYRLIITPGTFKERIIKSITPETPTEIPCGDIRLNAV
# [3] = tested on: c-Fos; assay: c-Fos immunohistochemistry in hippocampus of CUMS mice; type: in vivo, mouse; details: same dosage as fluoxetine (10 mg/kg i.p.)
# Excerpt: Figure 8 SYR effects on the expression of c-Fos and synaptic proteins in the hippocampus. (A) Representative immunohistochemical images of c-Fos expression in the hippocampus with the indicated treatments. (B) Quantitative analysis for hippocampal c-Fos expression with various treatments. Protein expression level is expressed as a percentage of c-Fos fluorescence measured in the control group. Bars represent the mean ± SEM (n = 4). ** p < 0.01 compared with the control or CUMS group by one-way ANOVA followed by post hoc tests. (C) Representative immunoblots of the synaptic proteins BDNF, PSD-95, GluA1, and vGluT1 with various treatments. (D–G) Quantification of the expression of synaptic proteins BDNF (D), PSD-95 (E), GluA1 (F), and vGluT1 (G). The expression level is expressed as a percentage of the integrated density obtained from the control group. Bars represent the mean ± SEM (n = 4). * p < 0.05, ** p < 0.01 by one-way ANOVA followed by post hoc tests.
# Mouse mPFC and hippocampal slices were prepared as previously described. Briefly, mice were deeply anesthetized with 4% pentobarbital sodium (Sigma-Aldrich, Saint Louis, MI, USA), and perfused transcardially with PBS, followed by 4% phosphate-buffered paraformaldehyde. […]
# [4] = molecular target: T1, hSERT E494Q; assay: APP^+ uptake, hSERT E494Q; type: cell-based; details: S2 site mutant, read-out: SYR IC50 for Transport
# [5] = molecular target: T2, hSERT Q111N (Homo sapiens, UniProt P31645, Q111N); assay: ASP^+ binding, hSERT Q111N; details: S2 site mutant, read-out: SYR IC50 for Binding
# T2 construct: forward and reverse primers were used to amplify a full-length hSERT; expressed in transfected cells; host or cells: HeLa cells, transient, pcDNA3.1
# T2 sequence (P31645 whole entry Q111N): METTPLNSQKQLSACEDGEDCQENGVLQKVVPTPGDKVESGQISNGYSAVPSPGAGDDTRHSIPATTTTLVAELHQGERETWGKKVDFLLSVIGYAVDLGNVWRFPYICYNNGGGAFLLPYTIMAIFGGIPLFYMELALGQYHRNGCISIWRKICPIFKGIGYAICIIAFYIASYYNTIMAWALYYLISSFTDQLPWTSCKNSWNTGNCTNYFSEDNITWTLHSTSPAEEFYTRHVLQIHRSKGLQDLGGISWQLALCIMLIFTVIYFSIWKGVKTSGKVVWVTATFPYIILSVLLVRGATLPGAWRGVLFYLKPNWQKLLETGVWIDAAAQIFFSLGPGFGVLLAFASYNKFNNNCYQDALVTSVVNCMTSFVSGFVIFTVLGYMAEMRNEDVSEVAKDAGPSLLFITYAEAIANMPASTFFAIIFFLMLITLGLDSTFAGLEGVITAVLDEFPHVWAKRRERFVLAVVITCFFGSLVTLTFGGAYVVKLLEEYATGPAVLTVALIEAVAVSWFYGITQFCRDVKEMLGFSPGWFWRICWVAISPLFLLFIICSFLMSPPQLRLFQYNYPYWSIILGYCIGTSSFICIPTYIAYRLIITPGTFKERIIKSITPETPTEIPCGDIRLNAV
# [6] = molecular target: T3, hSERT P560G (Homo sapiens, UniProt P31645, P560G); assay: APP^+ uptake, hSERT P560G; type: cell-based; details: S2 site mutant, read-out: SYR IC50 for Transport
# T3 construct: forward and reverse primers were used to amplify a full-length hSERT; expressed in transfected cells; host or cells: HeLa cells, transient, pcDNA3.1
# T3 sequence (P31645 whole entry P560G): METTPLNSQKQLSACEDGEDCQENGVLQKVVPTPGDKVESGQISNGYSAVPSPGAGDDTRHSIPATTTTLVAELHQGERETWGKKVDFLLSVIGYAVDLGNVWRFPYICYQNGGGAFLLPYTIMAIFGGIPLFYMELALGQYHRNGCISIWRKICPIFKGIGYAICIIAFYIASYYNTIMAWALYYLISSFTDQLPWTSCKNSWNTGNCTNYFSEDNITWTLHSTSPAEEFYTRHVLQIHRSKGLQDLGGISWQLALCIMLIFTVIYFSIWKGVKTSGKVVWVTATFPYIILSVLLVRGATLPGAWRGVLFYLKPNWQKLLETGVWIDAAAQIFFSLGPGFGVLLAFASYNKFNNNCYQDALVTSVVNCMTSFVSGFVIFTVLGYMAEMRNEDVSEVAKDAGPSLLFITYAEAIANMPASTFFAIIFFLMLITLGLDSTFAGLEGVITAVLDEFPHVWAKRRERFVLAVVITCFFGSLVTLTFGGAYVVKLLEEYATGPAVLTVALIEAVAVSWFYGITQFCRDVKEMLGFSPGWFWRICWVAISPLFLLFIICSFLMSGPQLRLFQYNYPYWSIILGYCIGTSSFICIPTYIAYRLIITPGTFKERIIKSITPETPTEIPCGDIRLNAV
# [7] = molecular target: T4, hSERT I327A (Homo sapiens, UniProt P31645, I327A); assay: APP^+ uptake, hSERT I327A; type: cell-based; details: S2 site mutant, read-out: SYR IC50 for Transport
# T4 construct: forward and reverse primers were used to amplify a full-length hSERT; expressed in transfected cells; host or cells: HeLa cells, transient, pcDNA3.1
# T4 sequence (P31645 whole entry I327A): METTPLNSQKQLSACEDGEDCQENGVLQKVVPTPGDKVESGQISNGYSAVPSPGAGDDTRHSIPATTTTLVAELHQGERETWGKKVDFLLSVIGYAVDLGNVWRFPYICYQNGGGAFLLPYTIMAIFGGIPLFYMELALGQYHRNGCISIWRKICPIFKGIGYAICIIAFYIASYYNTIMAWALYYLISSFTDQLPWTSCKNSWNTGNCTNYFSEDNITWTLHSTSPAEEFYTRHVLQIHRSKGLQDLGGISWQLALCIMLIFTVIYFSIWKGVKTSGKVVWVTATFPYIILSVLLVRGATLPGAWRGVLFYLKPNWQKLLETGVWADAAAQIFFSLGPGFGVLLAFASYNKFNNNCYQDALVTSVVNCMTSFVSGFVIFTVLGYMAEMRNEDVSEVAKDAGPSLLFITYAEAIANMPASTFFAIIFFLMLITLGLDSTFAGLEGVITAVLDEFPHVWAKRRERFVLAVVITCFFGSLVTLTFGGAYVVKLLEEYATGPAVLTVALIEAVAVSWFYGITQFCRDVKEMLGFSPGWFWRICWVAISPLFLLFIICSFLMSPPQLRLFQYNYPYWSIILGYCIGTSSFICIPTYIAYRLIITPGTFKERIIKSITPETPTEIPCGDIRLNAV
# [8] = molecular target: T5, hSERT S438T (Homo sapiens, UniProt P31645, S438T); assay: ASP^+ binding, hSERT S438T; details: S1 site mutant, read-out: SYR IC50 for Binding
# T5 construct: forward and reverse primers were used to amplify a full-length hSERT; expressed in transfected cells; host or cells: HeLa
# T5 sequence (P31645 whole entry S438T): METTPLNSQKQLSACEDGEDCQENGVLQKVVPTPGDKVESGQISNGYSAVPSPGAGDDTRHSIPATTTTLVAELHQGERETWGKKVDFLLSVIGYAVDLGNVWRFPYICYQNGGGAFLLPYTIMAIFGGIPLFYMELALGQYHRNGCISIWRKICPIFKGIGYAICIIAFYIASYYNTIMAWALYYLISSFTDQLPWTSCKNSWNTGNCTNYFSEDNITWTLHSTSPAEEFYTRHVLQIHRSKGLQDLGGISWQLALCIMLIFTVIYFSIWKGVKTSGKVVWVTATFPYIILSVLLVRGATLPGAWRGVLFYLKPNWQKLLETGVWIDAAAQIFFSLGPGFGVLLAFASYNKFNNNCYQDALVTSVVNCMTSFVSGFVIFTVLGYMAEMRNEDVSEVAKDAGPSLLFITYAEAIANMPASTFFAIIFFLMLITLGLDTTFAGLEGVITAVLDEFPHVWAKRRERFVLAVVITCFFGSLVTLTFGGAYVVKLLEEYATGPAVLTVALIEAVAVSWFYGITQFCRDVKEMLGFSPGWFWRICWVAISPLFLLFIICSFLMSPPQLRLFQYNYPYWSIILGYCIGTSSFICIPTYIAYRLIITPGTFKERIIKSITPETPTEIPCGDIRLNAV
# [9] = tested on: CUMS mice; assay: Tail suspension test (TST) in CUMS mice; type: in vivo, mouse
# Method: as §1
# [10] = molecular target: T6, hSERT D328A (Homo sapiens, UniProt P31645, D328A); assay: APP^+ uptake, hSERT D328A; type: cell-based; details: S2 site mutant, read-out: SYR IC50 for Transport
# T6 construct: forward and reverse primers were used to amplify a full-length hSERT; expressed in transfected cells; host or cells: HeLa cells, transient, pcDNA3.1
# T6 sequence (P31645 whole entry D328A): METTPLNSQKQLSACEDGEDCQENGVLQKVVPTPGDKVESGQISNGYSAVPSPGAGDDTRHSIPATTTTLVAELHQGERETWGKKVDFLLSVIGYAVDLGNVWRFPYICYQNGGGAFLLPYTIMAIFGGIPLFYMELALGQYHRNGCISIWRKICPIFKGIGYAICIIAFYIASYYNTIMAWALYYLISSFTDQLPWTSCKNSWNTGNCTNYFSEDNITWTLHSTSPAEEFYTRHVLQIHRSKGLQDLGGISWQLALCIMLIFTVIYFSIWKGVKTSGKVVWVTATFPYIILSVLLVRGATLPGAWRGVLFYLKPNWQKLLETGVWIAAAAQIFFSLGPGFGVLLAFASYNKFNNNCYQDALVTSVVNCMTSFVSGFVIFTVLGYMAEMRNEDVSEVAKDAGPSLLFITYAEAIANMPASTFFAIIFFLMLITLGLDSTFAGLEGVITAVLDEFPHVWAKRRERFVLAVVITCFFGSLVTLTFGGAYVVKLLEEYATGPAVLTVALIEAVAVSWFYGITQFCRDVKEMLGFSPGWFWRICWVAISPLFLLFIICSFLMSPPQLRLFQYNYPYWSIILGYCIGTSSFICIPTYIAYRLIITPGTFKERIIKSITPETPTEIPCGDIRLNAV
# [11] = tested on: SERT Y107C/C109A; assay: Cysteine accessibility, extracellular pathway: MTSET reactivity with Y107C/C109A; type: cell-based; details: 10 μM ligand, compared with the control (MTSET alone)
# [12] = 5 mg/kg, i.p., once per day day 7 to 21
smiles,measurement,setting,value
"COc1cc([C@@H]2OC[C@@H]3[C@H]2CO[C@H]3c2cc(OC)c(O)c(OC)c2)cc(OC)c1O [SYR, (-)-syringaresinol]",reversal of behavioral abnormalities in NSFT,[1]; [12],did not exhibit a significant response
same,effect in NSFT,[1]; 10 or 20 mg/kg (i.p.),remarkable antidepressant-like effects
same,IC50,[2],9.77 ± 0.78 µM
same,CUMS-induced decrease in expression of c-Fos in the hippocampus,[3],effectively alleviate
same,IC50,[4],12 ± 2.17 µM
same,IC50,[5],115 ± 2.47 µM
same,IC50,[6],5.99 ± 0.96 µM
same,IC50,[7],19.5 ± 1.02 µM
same,IC50,[8],2.32 ± 0.02 µM
same,CUMS-induced increase in immobility time in TST,[9]; [12],effectively attenuate
same,effect in TST,[9]; 10 or 20 mg/kg (i.p.),remarkable antidepressant-like effects
same,IC50,[10],19.6 ± 1.21 µM
same,rate constant of MTSET reactivity with Y107C/C109A,[11],markedly increased
